Source: ChEMBL document CHEMBL5104135, “Potent and selective TYK2-JH1 inhibitors highly efficacious in rodent model of psoriasis” (Bioorg Med Chem Lett, 2022)
pIC50, pKi: −log10 of the molar value. Converted amounts (≈) assume the structure as drawn.

Experiments:
Homo sapiens [1] = organism: Homo sapiens; assay: Ratio Ki for inhibition of JAK3 (unknown origin) over TYK2 JH1 domain (unknown origin)
[2] = Thermodynamic solubility in fasted simulated intestinal fluid; type: physicochemical; conditions: read-out: Therm_solubility
[3] = Kinetic solubility of compound at pH 7.4; conditions: buffer
Homo sapiens [4] = organism: Homo sapiens; assay: Ratio Ki for inhibition of JAK1 (unknown origin) over TYK2 JH1 domain (unknown origin)
Homo sapiens [5] = organism: Homo sapiens; assay: Ratio Ki for inhibition of JAK2 (unknown origin) over TYK2 JH1 domain (unknown origin)
[6] = Thermodynamic solubility in simulated gastric fluid; type: physicochemical; conditions: read-out: Therm_solubility
[7] = Efflux ratio of apparent permeability in human Caco-2 cells
[8] = biological target: Non-receptor tyrosine-protein kinase TYK2 (Homo sapiens, UniProt P29597)
Sequence of Non-receptor tyrosine-protein kinase TYK2 (P29597 whole entry): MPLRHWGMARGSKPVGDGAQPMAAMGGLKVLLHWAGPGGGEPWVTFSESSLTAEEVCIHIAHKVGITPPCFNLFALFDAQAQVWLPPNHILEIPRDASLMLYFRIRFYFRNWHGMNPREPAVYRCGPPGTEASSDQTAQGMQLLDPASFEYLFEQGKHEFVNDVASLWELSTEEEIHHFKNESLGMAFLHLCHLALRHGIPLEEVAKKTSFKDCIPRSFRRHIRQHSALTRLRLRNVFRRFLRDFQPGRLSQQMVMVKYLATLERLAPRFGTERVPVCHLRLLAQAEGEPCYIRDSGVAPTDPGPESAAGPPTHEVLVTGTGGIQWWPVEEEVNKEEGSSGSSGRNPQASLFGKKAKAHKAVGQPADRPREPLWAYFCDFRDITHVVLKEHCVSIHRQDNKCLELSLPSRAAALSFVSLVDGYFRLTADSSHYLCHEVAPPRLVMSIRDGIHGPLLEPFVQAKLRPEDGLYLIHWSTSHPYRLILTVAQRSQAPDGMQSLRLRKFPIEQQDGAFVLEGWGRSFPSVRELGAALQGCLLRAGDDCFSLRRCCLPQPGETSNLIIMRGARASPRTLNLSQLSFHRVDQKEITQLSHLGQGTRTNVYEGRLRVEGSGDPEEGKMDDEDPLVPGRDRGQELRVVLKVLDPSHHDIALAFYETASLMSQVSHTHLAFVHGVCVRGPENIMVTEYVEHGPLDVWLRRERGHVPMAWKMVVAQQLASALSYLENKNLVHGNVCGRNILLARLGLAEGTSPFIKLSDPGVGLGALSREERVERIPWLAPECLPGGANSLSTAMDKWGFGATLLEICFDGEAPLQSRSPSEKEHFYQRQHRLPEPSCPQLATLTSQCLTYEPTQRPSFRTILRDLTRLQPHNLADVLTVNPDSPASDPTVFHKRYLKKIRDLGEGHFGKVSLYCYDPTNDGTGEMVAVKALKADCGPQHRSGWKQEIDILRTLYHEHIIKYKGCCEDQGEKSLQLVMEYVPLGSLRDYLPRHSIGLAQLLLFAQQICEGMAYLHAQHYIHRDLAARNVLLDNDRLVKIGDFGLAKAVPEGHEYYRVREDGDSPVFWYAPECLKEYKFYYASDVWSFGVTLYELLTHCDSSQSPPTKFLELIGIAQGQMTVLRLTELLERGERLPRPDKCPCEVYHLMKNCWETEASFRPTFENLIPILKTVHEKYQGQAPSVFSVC
Description: Inhibition of TYK2 JH1 domain (unknown origin) measured in presence of 10 uM ATP

[9] = Plasma protein binding in mouse assessed as unbound fraction
[10] = Plasma protein binding in human assessed as unbound fraction
Blood [11] = assay: Inhibition of IL-12- induced IFN-gamma production in human whole blood; type: functional, tissue-based; conditions: for pIC50: Homo sapiens, Blood
Blood [12] = assay: Inhibition of IL-12- induced IFN-gamma production in mouse whole blood; type: functional, tissue-based; conditions: for pIC50: Mus musculus, Blood

## O=C1NCc2nc(-c3c(F)cccc3F)cc(Nc3ccc(N4CCOCC4=O)cn3)c21
Homo sapiens [1]
  Ratio Ki: 13
[2]
  solubility thermodynamic: 24 µM (≈ 10.5 µg/mL)
[3]
  solubility kinetic: 8.9 µM (≈ 3.89 µg/mL)
Homo sapiens [4]
  Ratio Ki: 80
Homo sapiens [5]
  Ratio Ki: 77
[6]
  solubility thermodynamic: 418 µM (≈ 183 µg/mL)
[7]
  efflux ratio: 7.8

## CCNC(=O)Cc1ccc(Nc2nc(-c3c(F)cccc3F)nc3c2C(=O)NC3)cc1
Homo sapiens [1]
  Ratio Ki: 4.6
[3]
  solubility kinetic: 1.2 µM (≈ 0.508 µg/mL)
Homo sapiens [4]
  Ratio Ki: 17
Homo sapiens [5]
  Ratio Ki: 30
[7]
  efflux ratio: 6.4

## O=C1NCc2nc(-c3c(F)cccc3F)nc(Nc3ccc(C4CCCNC4=O)cc3)c21 (stereo in doubt; 15b) [listing 1 of 2 here]
[8]
  pKi: 8.41

## O=C1NCc2nc(-c3c(F)cccc3F)nc(Nc3ccc(C4CCCNC4=O)cc3)c21 (stereo in doubt; 15a)
Homo sapiens [1]
  Ratio Ki: 19
Homo sapiens [4]
  Ratio Ki: 77
Homo sapiens [5]
  Ratio Ki: 83

## CCNC(=O)C(C)(O)c1ccc(Nc2nc(-c3c(F)cccc3F)nc3c2C(=O)NC3)cc1 (stereo in doubt; 13b) [listing 1 of 2 here]
Homo sapiens [1]
  Ratio Ki: 13
Homo sapiens [4]
  Ratio Ki: 27
Homo sapiens [5]
  Ratio Ki: 123

## O=C1NCc2nc(-c3c(F)cccc3F)nc(Nc3ccc(C4CCNC4=O)cc3)c21 (stereo in doubt; 14b) [listing 1 of 2 here]
[8]
  pKi: 8.96

## NC(=O)c1cnc(-c2c(F)cccc2F)nc1Nc1ccc(CC(=O)O)cc1
Homo sapiens [1]
  Ratio Ki: 95
Homo sapiens [4]
  Ratio Ki: 7.8
Homo sapiens [5]
  Ratio Ki: 74

## COc1ccc(Nc2nc(-c3c(F)cccc3F)nc3c2C(=O)NC3)cc1
Homo sapiens [1]
  Ratio Ki: 11
Homo sapiens [4]
  Ratio Ki: 25
Homo sapiens [5]
  Ratio Ki: 240

## CN1CCN(C(=O)Cc2ccc(Nc3nc(-c4c(F)cccc4F)nc4c3C(=O)NC4)cc2)CC1
Homo sapiens [1]
  Ratio Ki: 10
Homo sapiens [4]
  Ratio Ki: 89
Homo sapiens [5]
  Ratio Ki: 52

## CCNC(=O)C(C)(O)c1ccc(Nc2nc(-c3c(F)cccc3F)nc3c2C(=O)NC3)cc1 (stereo in doubt; 13a) [listing 1 of 2 here]
[7]
  efflux ratio: 32

## CCNC(=O)c1ccc(Nc2cc(-c3c(F)cccc3Cl)nc3c2C(=O)NC3)nc1
Homo sapiens [1]
  Ratio Ki: 1.8
Homo sapiens [4]
  Ratio Ki: 7.3
Homo sapiens [5]
  Ratio Ki: 12

## CCNC(=O)C(C)(O)c1ccc(Nc2nc(-c3c(F)cccc3F)nc3c2C(=O)NC3)cc1 (stereo in doubt; 13a) [listing 2 of 2 here]
Homo sapiens [1]
  Ratio Ki: 43
Homo sapiens [4]
  Ratio Ki: 87
Homo sapiens [5]
  Ratio Ki: 300

## CCNC(=O)c1ccc(Nc2cc(-c3c(F)cccc3F)nc3c2C(=O)NC3)nc1
Homo sapiens [1]
  Ratio Ki: 24
[2]
  solubility thermodynamic: 15 µM (≈ 6.14 µg/mL)
[9]
  fraction unbound: 0.16
[3]
  solubility kinetic: 3.1 µM (≈ 1.27 µg/mL)
Homo sapiens [4]
  Ratio Ki: 84
Homo sapiens [5]
  Ratio Ki: 170
[6]
  solubility thermodynamic: 255 µM (≈ 104 µg/mL)
[10]
  fraction unbound: 0.17
Blood [11]
  fIC50: 0.27 µM
  pIC50: 5.80
Blood [12]
  fIC50: 0.19 µM
  pIC50: 5.92
[7]
  efflux ratio: 7.2

## O=C1NCc2nc(-c3c(F)cccc3F)nc(Nc3ccc(C4CCCNC4=O)cc3)c21 (stereo in doubt; 15b) [listing 2 of 2 here]
Homo sapiens [1]
  Ratio Ki: 10
Homo sapiens [4]
  Ratio Ki: 130
Homo sapiens [5]
  Ratio Ki: 84

## O=C1NCc2nc(-c3c(F)cccc3F)cc(Nc3ccc(C(=O)N4CCOCC4)cn3)c21
Homo sapiens [1]
  Ratio Ki: 2.3
Homo sapiens [4]
  Ratio Ki: 16
Homo sapiens [5]
  Ratio Ki: 18

## O=C1NCc2nc(-c3c(F)cccc3F)cc(Nc3ccc(N4CCOCC4)cn3)c21
Homo sapiens [1]
  Ratio Ki: 25
[3]
  solubility kinetic: 12 µM (≈ 5.08 µg/mL)
Homo sapiens [4]
  Ratio Ki: 160
Homo sapiens [5]
  Ratio Ki: 120
[7]
  efflux ratio: 0.58

## O=C1NCc2nc(-c3c(F)cccc3F)nc(Nc3ccc(C4CCNC4=O)cc3)c21 (stereo in doubt; 14a)
Homo sapiens [1]
  Ratio Ki: 4
Homo sapiens [4]
  Ratio Ki: 37
Homo sapiens [5]
  Ratio Ki: 35

## O=C1NCc2nc(-c3c(F)cccc3F)nc(Nc3ccc(C4CCNC4=O)cc3)c21 (stereo in doubt; 14b) [listing 2 of 2 here]
Homo sapiens [1]
  Ratio Ki: 15
Homo sapiens [4]
  Ratio Ki: 55
Homo sapiens [5]
  Ratio Ki: 96

## O=C1NCc2nc(-c3c(F)cccc3F)cc(Nc3ccc(C(=O)N4CCCC4)cn3)c21
Homo sapiens [1]
  Ratio Ki: 3.3
Homo sapiens [4]
  Ratio Ki: 53
Homo sapiens [5]
  Ratio Ki: 23

## CC(C)c1nc(Nc2ccc(C(=O)O)cc2)c2c(=O)[nH]ccc2n1
Homo sapiens [1]
  Ratio Ki: 1.3
Homo sapiens [4]
  Ratio Ki: 5.3
Homo sapiens [5]
  Ratio Ki: 2.5

## O=C1NCc2nc(-c3c(F)cccc3F)cc(Nc3ccc(C(=O)N4CCOCC4)cc3)c21
Homo sapiens [1]
  Ratio Ki: 8.6
[2]
  solubility thermodynamic: 148 µM (≈ 66.7 µg/mL)
[9]
  fraction unbound: 0.24
[3]
  solubility kinetic: 170 µM (≈ 76.6 µg/mL)
Homo sapiens [4]
  Ratio Ki: 92
Homo sapiens [5]
  Ratio Ki: 35
[10]
  fraction unbound: 0.25
Blood [11]
  fIC50: 0.16 µM
  pIC50: 6.21
Blood [12]
  fIC50: 0.86 µM
  pIC50: 5.44
[7]
  efflux ratio: 9.1

## CCNC(=O)C(C)(O)c1ccc(Nc2nc(-c3c(F)cccc3F)nc3c2C(=O)NC3)cc1 (stereo in doubt; 13b) [listing 2 of 2 here]
[8]
  pKi: 8.47

## CCNC(=O)Cc1ccc(Nc2cc(-c3c(F)cccc3F)nc3c2C(=O)NC3)nc1
Homo sapiens [1]
  Ratio Ki: 5.7
[3]
  solubility kinetic: 0.6 µM (≈ 0.254 µg/mL)
Homo sapiens [4]
  Ratio Ki: 39
Homo sapiens [5]
  Ratio Ki: 72
[7]
  efflux ratio: 9.6

## O=C1NCc2nc(-c3c(F)cccc3F)cc(Nc3ccc(C(=O)N4CC[C@H](O)C4)cc3)c21
Homo sapiens [1]
  Ratio Ki: 14
[3]
  solubility kinetic: 290 µM (≈ 131 µg/mL)
Homo sapiens [4]
  Ratio Ki: 110
Homo sapiens [5]
  Ratio Ki: 110
[7]
  efflux ratio: 60

## CCNC(=O)c1ccc(Nc2cc(-c3c(F)cccc3C#N)nc3c2C(=O)NC3)nc1
Homo sapiens [1]
  Ratio Ki: 69
Homo sapiens [4]
  Ratio Ki: 6.5
Homo sapiens [5]
  Ratio Ki: 15

## O=C1NCc2nc(-c3c(F)cccc3F)cc(Nc3ccc(N4CCC(F)(F)CC4)cn3)c21
Homo sapiens [1]
  Ratio Ki: 32
[3]
  solubility kinetic: 2.4 µM (≈ 1.1 µg/mL)
Homo sapiens [4]
  Ratio Ki: 400
Homo sapiens [5]
  Ratio Ki: 370
[7]
  efflux ratio: 0.68

## NC(=O)c1ccc(NC(=O)c2ccc[nH]c2=O)cc1
Homo sapiens [1]
  Ratio Ki: 2.3
Homo sapiens [4]
  Ratio Ki: 1.4
Homo sapiens [5]
  Ratio Ki: 1.1

## O=C1NCc2nc(-c3c(F)cccc3F)nc(Nc3ccc(CC(=O)N4CCN(CC(F)F)CC4)cc3)c21
Homo sapiens [1]
  Ratio Ki: 2.3
Homo sapiens [4]
  Ratio Ki: 31
Homo sapiens [5]
  Ratio Ki: 24

## N#Cc1cccc(F)c1-c1cc(Nc2ccc(N3CCOCC3)cn2)c2c(n1)CNC2=O
Homo sapiens [1]
  Ratio Ki: 170
Homo sapiens [4]
  Ratio Ki: 27
Homo sapiens [5]
  Ratio Ki: 26

## O=C1NCc2nc(-c3c(F)cccc3F)nc(Nc3ccc(CC(=O)N4CCOCC4)cc3)c21
Homo sapiens [1]
  Ratio Ki: 8.8
Homo sapiens [4]
  Ratio Ki: 59
Homo sapiens [5]
  Ratio Ki: 47

## O=C1NCc2nc(-c3c(F)cccc3F)cc(Nc3ccc(N4CCC(O)CC4)cn3)c21
Homo sapiens [1]
  Ratio Ki: 25
[3]
  solubility kinetic: 65 µM (≈ 28.4 µg/mL)
Homo sapiens [4]
  Ratio Ki: 160
Homo sapiens [5]
  Ratio Ki: 120
[7]
  efflux ratio: 1.5
